Where a name gives a salt, the structure may show the parent alone.
Columns and labels:
[1] = system: anemic decerebrated rigidity; test: Effect on anemic decerebrated rigidity (rigidity relieving effect, EMG of forelimb M. triceps brachii); type: in vivo, rat (Wister male rats); details: rat; for inhibition in vivo at 3 mg/kg: iv, 10 min, 3 mg/kg through the femoral vein, 10 minutes after administration, * fumarate, ** oxalate, read-out: Relieving Rate (suppression rate of EMG)
Protocol: The experiment was performed using specimen of anemic decerebrated rigidity produced in rats according to the method of Fukuda, H., Ito, T., Hashimoto, S., and Kudo, Y.; Japan, J., Pharmacol., 24, 810 (1974). Wister male rats (body weight: 270 to 350 g) were held on their backs and incised at their cervices under etherization. After the trachea and common carotid arteries were exposed, the trachea was cannulated and the bilateral common carotid arteries and esophagus were then double-[…] cut. Subsequently, its occipital bone was exposed through which a circular hole was bored to double-ligate the centrally extending basilar artery. As each rat started coming out of anesthetization, its front limbs became rigid. Measurement was conducted by recording electromyographic (EMG) response from the muscle of the forelimb (M. triceps brachii) of the rat in the rigid state. The EMG pulses were converted to accumulated values every 10 seconds and recorded as a histogram on a recorder. The effect of each test compound on the rigidity was evaluated in terms of the suppression rate. This rate was calculated first by determining the area (see FIG. 1) of a decreased EMG pulse part on the histrograpm upon passage of 10 minutes after administration of a physiological saline solution of each test compound (3 mg/kg) through the femoral vein and then in accordance with the following equation: Suppression rate (%)=(a/A)×100 wherein a means an EMG pulse area decreased as a result of the administration of the test compound; and A means an EMG pulse area observed when no test compound was administered (control).

[2] = Acute toxicity (LD50, up-and-down method); details: in vivo; iv, tail vein, ddN male mouse; * fumarate, ** oxalate
Protocol: LD50 was determined by a known up-and-down method using ddN male mouse. The test compound was dissolved in a physiological saline solution, and the resulting solution was administered into the mouse through the tail vein.

[3] = system: glutamic acid at neuromuscular junctions of crayfish (opener muscles of the first walking legs); test: Blocking effects on glutamic acid at neuromuscular junctions of crayfish (suppression of L-glutamic acid-induced depolarization); details: test compound 2×10^-4 M, 5-minute pretreatment; L-glutamic acid 10^-4 M; 200 µM
Protocol: The method of Ishida et al., [(J. Physiol., 298, 301-319 (1980)] and that of Shinozaki et al. [Comp. Biochem. Physiol., 70c, 49-58 (1981)] were followed. The opener muscles of the first walking legs of crayfish were used as experimental materials. The neuromuscular sample was held in a bath in which a physiologicl solution [NaCl (195 mM), CaCl2 (18 mM, KCl (5.4 mM), tris-maleate buffer (pH 7.5, 10 mM), and glucose (11 mM)] for use with the cray fish was perfused at room temperature and at a constant flow rate. A glass micro-electrode filled with a 3M-KCl solution was inserted in a central part of the muscle fiber to intracellularly record the changes in the potential of the muscular cell membrane.
The blocking effect of each test compound on glutamic acid was evaluated in terms of the suppression rate to depolarization which was induced by bath-applying L-glutamic acid (10^-4 M) in a 5-minute pretreatment with a solution of the test compound (2×10^-4 M).

CCN(CC)CCNC(=O)c1ccc2ccccc2n1 [N-(2-diethylaminoethyl)quinaldinamide, reference compound]
rigidity relieving effect (in words) ([1]; in vivo): very weak rigidity relieving effect

Cc1ccccc1C(CCN1CCCCC1)NC(=O)c1ccc2ccccc2n1 (centres unmarked) [Compound 7, N-[1-(2-methylphenyl)-3-piperidinopropyl]quinaldinamide]
LD50 [2]: 23.5 mg/kg | inhibition in vivo at 3 mg/kg [1]: 11.2%

Cc1cccc(C(CCN2CCCCC2)NC(=O)c2ccc3ccccc3n2)c1 (centres unmarked) [Compound 8, N-[1-(3-methylphenyl)-3-piperidinopropyl]quinaldinamide]
LD50 [2]: 25.4 mg/kg | inhibition in vivo at 3 mg/kg [1]: 11.7%

O=C(NC(CCN1CCCCCC1)c1ccccc1)c1ccc2ccccc2n1 (centres unmarked) [Compound 6, N-[3-(perhydroazepin-1-yl)-1-phenylpropyl]quinaldinamide]
LD50 [2]: 15.2 mg/kg | inhibition in vivo at 3 mg/kg [1]: 12.2%

CCN(CC)CCC(NC(=O)c1ccc2ccccc2n1)c1ccccc1 (centres unmarked) [Compound 2, N-(3-diethylamino-1-phenylpropyl)quinaldinamide]
LD50 [2]: 18.9 mg/kg | inhibition in vivo at 3 mg/kg [1]: 24.6%

O=C(NC(CCN1CCCCC1)c1ccccc1)c1ccc2ccccc2n1 (centres unmarked) [Compound 5, N-(1-phenyl-3-piperidinopropyl)quinaldinamide]
LD50 [2]: 24.8 mg/kg | Glutamic Acid-Blocking Rate (suppression rate to depolarization) [3]: 66% | inhibition in vivo at 3 mg/kg [1]: 18.8%

CCN(CC)CCNC(=O)c1ccc2ccccc2n1 [Control Compound 1, N-(2-diethylaminoethyl)quiinaldinamide fumarate, reference compound]
Glutamic Acid-Blocking Rate (suppression rate to depolarization) [3]: 30% | inhibition in vivo at 3 mg/kg [1]: 1.2%

Cc1ccc(C(=O)C(C)CN2CCCCC2)cc1 (centres unmarked) [Control Compound 2, 2,4'-dimethyl-3-piperidinopropiophenone hydrochloride, reference compound]
inhibition in vivo at 3 mg/kg [1]: 4.8%

O=C(NC(CCN1CCCC1)c1ccccc1)c1ccc2ccccc2n1 (centres unmarked) [Compound 4, N-(1-phenyl-3-pyrrolidinopropyl)quinaldinamide]
LD50 [2]: 17.2 mg/kg | inhibition in vivo at 3 mg/kg [1]: 19.6%

Reference: US4764617A, “Quinaldinamide derivatives” (Nippon Chemiphar Co., Ltd., priority 1986, dated 1988)
